Experimental data reported in ChEMBL document CHEMBL1921694, “Structure-based design of isoindoline-1,3-diones and 2,3-dihydrophthalazine-1,4-diones as novel B-Raf inhibitors” (Bioorg Med Chem Lett, 2011).

Biological target: Serine/threonine-protein kinase B-raf (Homo sapiens, UniProt P15056)
Assay: Inhibition of human recombinant his6-tagged B-Raf expressed in Sf9 cells assessed as inhibition of MEK1 phosphorylation after 60 mins

Chain of Serine/threonine-protein kinase B-raf (P15056 whole entry): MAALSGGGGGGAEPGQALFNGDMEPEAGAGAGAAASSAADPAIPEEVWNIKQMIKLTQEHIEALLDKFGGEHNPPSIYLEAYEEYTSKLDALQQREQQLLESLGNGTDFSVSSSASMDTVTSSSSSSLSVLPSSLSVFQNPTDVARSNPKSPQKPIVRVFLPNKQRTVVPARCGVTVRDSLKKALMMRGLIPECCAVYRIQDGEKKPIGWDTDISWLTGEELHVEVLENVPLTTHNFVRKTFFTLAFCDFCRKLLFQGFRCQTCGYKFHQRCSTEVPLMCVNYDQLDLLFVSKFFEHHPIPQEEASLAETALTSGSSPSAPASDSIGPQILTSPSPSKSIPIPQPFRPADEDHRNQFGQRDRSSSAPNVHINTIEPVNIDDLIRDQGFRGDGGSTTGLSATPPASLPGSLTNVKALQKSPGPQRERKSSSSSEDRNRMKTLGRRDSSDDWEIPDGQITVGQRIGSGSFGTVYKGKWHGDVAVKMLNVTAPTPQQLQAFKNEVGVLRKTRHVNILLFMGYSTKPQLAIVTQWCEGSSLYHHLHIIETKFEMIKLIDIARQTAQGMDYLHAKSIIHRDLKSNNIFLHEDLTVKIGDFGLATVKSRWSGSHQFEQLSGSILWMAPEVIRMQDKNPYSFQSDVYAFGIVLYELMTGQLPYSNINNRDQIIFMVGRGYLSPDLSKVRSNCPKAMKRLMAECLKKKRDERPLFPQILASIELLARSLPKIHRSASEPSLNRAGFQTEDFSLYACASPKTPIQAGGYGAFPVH

| IC50 | SMILES |
| --- | --- |
| 19 nM | O=C(Nc1cccc(Nc2cc3c(=O)[nH][nH]c(=O)c3cc2Cl)c1)c1cccc(Br)c1 |
| 3770 nM | O=c1[nH][nH]c(=O)c2cc(Nc3cccc(O)c3)c(Nc3ccccc3)cc12 |
| 293 nM | Cn1nc(C(C)(C)C)cc1C(=O)Nc1cccc(Nc2cc3c(=O)[nH][nH]c(=O)c3cc2Cl)c1 |
| 35 nM | O=C(Nc1cccc(Nc2cc3c(cc2Cl)C(=O)NC3=O)c1)c1cccc(Br)c1 |
| 17 nM | O=C(Nc1cccc(Nc2cc3c(=O)[nH][nH]c(=O)c3cc2Cl)c1)c1cccc(C(F)(F)F)c1 |
| 6 nM | O=C(Nc1cccc(Nc2cc3c(cc2Cl)C(=O)NC3=O)c1)c1cccc(OC(F)(F)F)c1 |
| 8 nM | O=C(Nc1cccc(Nc2cc3c(cc2Cl)C(=O)NC3=O)c1)c1cccc(I)c1 |
| 290 nM | O=c1[nH][nH]c(=O)c2cc(Nc3cccc(O)c3)c(Nc3cccc(O)c3)cc12 |

Continued, compound first:

| SMILES | IC50 |
| --- | --- |
| O=C1NC(=O)c2cc(Nc3cccc(O)c3)c(Nc3cccc(O)c3)cc21 | 338 nM |
| NC(=O)c1ccc2[nH]cc(-c3cccc(O)c3)c2c1 | > 10000 nM |
| N#Cc1cccc(C(=O)Nc2cccc(Nc3cc4c(=O)[nH][nH]c(=O)c4cc3Cl)c2)c1 | 296 nM |
| Cn1nc(C(C)(C)C)cc1C(=O)Nc1cccc(Nc2cc3c(cc2Cl)C(=O)NC3=O)c1 | 349 nM |
| O=C(Nc1cccc(Nc2cc3c(cc2Cl)C(=O)NC3=O)c1)c1cccc(Cl)c1 | 117 nM |
| O=C(Nc1cccc(Nc2cc3c(cc2Cl)C(=O)NC3=O)c1)c1cccc(C(F)(F)F)c1 | 10 nM |
| O=C1NC(=O)c2cc(Nc3cccc(O)c3)c(Nc3ccccc3)cc21 | 1680 nM |
| N#Cc1cccc(C(=O)Nc2cccc(Nc3cc4c(cc3Cl)C(=O)NC4=O)c2)c1 | 297 nM |
| O=C(Nc1cccc(Nc2cc3c(=O)[nH][nH]c(=O)c3cc2Cl)c1)c1cccc(I)c1 | 8 nM |
| O=C(Nc1cccc(Nc2cc3c(=O)[nH][nH]c(=O)c3cc2Cl)c1)c1cccc(Cl)c1 | 35 nM |
| O=C1NC(=O)c2cc3c(-c4cccc(O)c4)c[nH]c3cc21 | 3470 nM |
| O=C(Nc1cccc(Nc2cc3c(=O)[nH][nH]c(=O)c3cc2Cl)c1)c1cccc(OC(F)(F)F)c1 | 18 nM |
